According to patent US20050282818A1, “Ubiquitin ligase inhibitors” (Rigel Pharmaceuticals, Inc., priority 2004, published 2005):

What was measured:
TRAF6/Uev1A/Ubc13 = biological target: T1, TRAF6/Uev1A/Ubc13 (Homo sapiens, UniProt Q9Y4K3); assay: TRAF6/Uev1A/Ubc13 plate-based ubiquitin ligase assay; assay type: biochemical
T1 sequence (Q9Y4K3 1-522): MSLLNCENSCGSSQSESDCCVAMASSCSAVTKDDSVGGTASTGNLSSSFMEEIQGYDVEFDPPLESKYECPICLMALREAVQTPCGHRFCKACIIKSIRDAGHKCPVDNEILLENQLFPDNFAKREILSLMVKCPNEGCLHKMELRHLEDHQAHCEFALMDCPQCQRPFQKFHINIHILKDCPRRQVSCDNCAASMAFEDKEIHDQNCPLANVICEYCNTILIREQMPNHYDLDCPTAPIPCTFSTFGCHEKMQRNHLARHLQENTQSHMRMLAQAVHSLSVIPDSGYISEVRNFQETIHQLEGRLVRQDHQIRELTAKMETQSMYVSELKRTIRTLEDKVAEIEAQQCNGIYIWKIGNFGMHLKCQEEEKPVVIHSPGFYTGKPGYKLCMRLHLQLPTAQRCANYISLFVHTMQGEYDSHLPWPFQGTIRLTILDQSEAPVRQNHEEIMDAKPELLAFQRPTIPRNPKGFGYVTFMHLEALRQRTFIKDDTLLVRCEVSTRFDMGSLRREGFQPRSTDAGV
Outline: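 Ligase activity was read as luminescence from anti-Flag/HRP detection of Flag-ubiquitin bound to casein-blocked Ni-plates alongside His-ubiquitin after a 1 h room-temperature reaction. Buffer: 62.5 mM Tris pH 7.5, 6.25 mM MgCl2, 1.0 mM DTT, 2 μM ATP; E1, Uev1a/Ubc13 and TRAF6 added last to start. IC50s derived across compound concentrations.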

ROC1/CUL1 = biological target: T2, ROC1/CUL1 (Homo sapiens, UniProt P62877+Q13616); assay: ROC1/CUL1 ubiquitin ligase assay (SCF assay); assay type: biochemical
T2 construct: made in house
Description: Inhibition of ubiquitin ligase activity of E1+E2+E3 was measured using the protocol as described in WO 01/75145 with E3 as the ROC1/CUL1, ROC1/CUL2, or ROC2/CUL5 complex.
The wells of nickel-substrate 96-well plates (Pierce Chemical) are blocked with 100 μl of 1 casein/phosphate buffered saline (PBS) for 1 hour at room temperature, then washed with 200 μl of PBST (0.1% Tween-20 in PBS) 3 times. To each well is added the following Flag-ubiquitin (see above) reaction solution: 62.5 mM Tris pH 7.5, 6.25 mm MgCl2, 0.75 mM DTT, 2.5 mM ATP, 2.5 mM NaF1, 2.5 nM Okadaic acid, 100 ng Flag-ubiquitin (made as described above).
The buffer solution is brought to a final volume of 80 μl with Milipore-filtered water, followed by the addition of 10 μl DMSO.
To the above solution is then added 10 μl of ubiquitination enzymes in 20 mM Tris buffer, pH 7.5, and 5% glycerol. E2-Ubch5c and E3-His ROC1/Cul1, ROC1/CUL2, and ROC2/CUL5 are made as described in WO 01/75145. E1 is obtained commercially (Affiniti Research Products, Exeter, U. K.). The following amounts of each enzyme are used for these assays: 5 ng/well of E1; […] E2; and 100 ng/well His-E3. Varying amounts of compounds according to the invention are added and the reaction allowed to proceed at room temperature for 1 hour.
Following the ubiquitination reaction, the wells are washed with 200 μl of PBST 3 times. For measurement of the enzyme-bound ubiquitin, 100 gel of Mouse anti-Flag (1:10,000) and anti-Mouse Ig-HRP (1:15, 000) in PBST are added to each well and allowed to incubate at room temperature for 1 hour. The wells are then washed with 200 μl of PBST 3 times, followed by the addition of 100 μl of luminol substrate (1/5 dilution). Luminescence for each well is then measured using a fluorimeter.
Table 2 below illustrates the inhibitory activity of the compounds of the invention determined by the TRAF6/Uev1A/Ubc13 assay as well as in the ICAM, APC and the ROC1/CUL1 Ubiquitin Ligase Assay (SCF Assay). The IC50 values were determined using a various concentrations of the compounds.

A549 cells = assay: Cell proliferation PAD assay, A549; assay type: cell-based; conditions: Homo sapiens, 3pt, 48 hours, read-out: A549 3pt
Outline: (§1)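 Cells plated at 2,000/well; compounds added 24 h later as 6.3-fold dilutions from a 10 mM master stock, diluted 500-fold into wells, in duplicate. After 48 h at 37 °C, 5% CO2, cells were formamide-fixed, DAPI-stained and imaged to count live, apoptotic and dead cells.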

H1299 cells = assay: Cell proliferation PAD assay, H1299; assay type: cell-based; conditions: Homo sapiens, NCI-H1299, 3pt, 48 hours, read-out: H1299 3pt
Outline: as §1

T2 sequence (P62877 whole entry): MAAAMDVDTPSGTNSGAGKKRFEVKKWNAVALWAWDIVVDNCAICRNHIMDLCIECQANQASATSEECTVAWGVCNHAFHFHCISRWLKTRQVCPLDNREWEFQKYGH
T2 sequence (Q13616 whole entry): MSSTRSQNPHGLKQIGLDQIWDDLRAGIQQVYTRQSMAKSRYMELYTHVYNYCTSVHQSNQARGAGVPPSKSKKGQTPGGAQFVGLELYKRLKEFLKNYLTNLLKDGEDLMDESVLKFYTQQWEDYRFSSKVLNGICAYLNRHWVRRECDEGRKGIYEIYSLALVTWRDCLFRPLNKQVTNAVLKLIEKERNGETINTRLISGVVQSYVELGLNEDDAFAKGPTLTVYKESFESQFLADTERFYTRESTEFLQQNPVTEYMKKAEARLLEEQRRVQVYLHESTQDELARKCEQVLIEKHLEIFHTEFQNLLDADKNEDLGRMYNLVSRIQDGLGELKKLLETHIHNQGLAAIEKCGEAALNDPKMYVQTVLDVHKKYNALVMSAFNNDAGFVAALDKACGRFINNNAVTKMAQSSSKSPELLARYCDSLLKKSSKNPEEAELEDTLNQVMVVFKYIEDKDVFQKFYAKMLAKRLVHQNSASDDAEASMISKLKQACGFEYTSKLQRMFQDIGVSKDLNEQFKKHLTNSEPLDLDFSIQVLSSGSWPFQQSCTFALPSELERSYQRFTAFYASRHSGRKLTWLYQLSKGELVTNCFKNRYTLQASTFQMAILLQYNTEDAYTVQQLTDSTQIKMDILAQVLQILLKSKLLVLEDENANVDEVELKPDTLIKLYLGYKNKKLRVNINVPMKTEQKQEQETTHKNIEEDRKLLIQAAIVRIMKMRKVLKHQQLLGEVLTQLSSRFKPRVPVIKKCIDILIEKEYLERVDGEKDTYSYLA

| Compound | IC50 (TRAF6/Uev1A/Ubc13) | IC50 (ROC1/CUL1) | IC50 (A549 cells) | IC50 (H1299 cells) |
| --- | --- | --- | --- | --- |
| CC(=O)OCCCNc1cc(Sc2nnc(C)s2)c2nonc2c1[N+](=O)[O-] [compound 133, 3-({7-[(5-methyl-1,3,4-thiadiazol-2-yl)thio]-4-nitro-2,1,3-benzoxadiazol-5-yl}amino)propyl acetate] | ≥ 20 µM | ≥ 20 µM | – | – |
| CCCSc1cc(NCCCOC(C)=O)c([N+](=O)[O-])c2nonc12 [compound 134, 4-{[4-nitro-7-(propylthio)-2,1,3-benzoxadiazol-5-yl]amino}propyl acetate] | ≥ 20 µM | ≥ 20 µM | – | – |
| CC(=O)OCCCNc1cc(SC2CCCCC2)c2nonc2c1[N+](=O)[O-] [compound 135, 3-{[7-(cyclohexylthio)-4-nitro-2,1,3-benzoxadiazol-5-yl]amino}propyl acetate] | ≥ 20 µM | ≥ 20 µM | – | – |
| CC(=O)OCCCNc1cc(SCc2ccco2)c2nonc2c1[N+](=O)[O-] [compound 136, 3-({7-[(2-furylmethyl)thio]-4-nitro-2,1,3-benzoxadiazol-5-yl}amino)propyl acetate] | ≥ 20 µM | ≥ 20 µM | – | – |
| CCOC(=O)CSc1cc(NCCCOC(C)=O)c([N+](=O)[O-])c2nonc12 [compound 137, ethyl [(6-{[3-(acetyloxy)propyl]amino}-7-nitro-2,1,3-benzoxadiazol-4-yl)thio]acetate] | ≥ 20 µM | ≥ 20 µM | – | – |
| Cc1cccc(N2CCN(S(=O)(=O)c3ccc(Sc4cccc5cccnc45)c4nonc34)CC2)n1 [compound 196, 8-[(7-{[4-(6-methylpyndin-2-yl)piperazin-1-yl]sulfonyl}-2,1,3-benzoxadiazol-4-yl)thio]quinoline] | 1 to 20 µM | ≥ 20 µM | ≥ 20 µM | ≥ 20 µM |
| CC1CC(C)CN(S(=O)(=O)c2ccc(Sc3cccc4cccnc34)c3nonc23)C1 (stereo not shown) [compound 197, 8-({7-[(3,5-dimethylpipendin-1-yl)sulfonyl]-2,1,3-benzoxadiazol-4-yl}thio)quinoline] | 1 to 20 µM | ≥ 20 µM | 1 to 20 µM | 1 to 20 µM |
| N#Cc1ccc(N2CCN(c3ccc4nonc4c3S(=O)(=O)N3CCN(c4ccc(C#N)cn4)CC3)CC2)nc1 [compound 210, 6-[4-({5-[4-(5-cyanopyridin-2-yl)piperazin-1-yl]-2,1,3-benzoxadiazol-4-yl}sulfonyl)piperazin-1-yl]nicotinonitrile] | ≥ 20 µM | ≥ 20 µM | ≥ 20 µM | 1 to 20 µM |
| N#Cc1ccc(N2CCN(S(=O)(=O)c3c(Sc4cccc5cccnc45)ccc4nonc34)CC2)nc1 [compound 212, 6-(4-{[5-(quinolin-8-ylthio)-2,1,3-benzoxadiazol-4-yl]sulfonyl}piperazin-1-yl)nicotinonitrile] | 1 to 20 µM | ≥ 20 µM | 1 to 20 µM | 1 to 20 µM |
| CC1CN(S(=O)(=O)c2c(Sc3cccc4cccnc34)ccc3nonc23)CC(C)O1 (stereo not shown) [compound 216, 8-({4-[(2,6-dimethylmorpholin-4-yl)sulfonyl]-2,1,3-benzoxadiazol-5-yl}thio)quinoline] | 1 to 20 µM | ≥ 20 µM | – | – |
| O=[N+]([O-])c1ccc(Nc2ccc3[nH]ncc3c2)c2nonc12 [compound 222, N-1H-indazol-5-yl-7-nitro-2,1,3-benzoxadiazol-4-amine] | 1 to 20 µM | ≥ 20 µM | ≥ 20 µM | 1 to 20 µM |
| O=[N+]([O-])c1ccc(Nc2ccc3cn[nH]c3c2)c2nonc12 [compound 223, N-1H-indazol-6-yl-7-nitro-2,1,3-benzoxadiazol-4-amine] | 1 to 20 µM | ≥ 20 µM | – | – |
| O=S(=O)(c1ccc(Sc2ccc(O)cc2)c2nonc12)N1CCC(O)(c2ccc(Cl)cc2)CC1 [compound 228, 4-(4-chlorophenyl)-1-({7-[(4-hydroxyphenyl)thio]-2,1,3-benzoxadiazol-4-yl}sulfonyl)piperidin-4-ol] | < 1 µM | ≥ 20 µM | ≥ 20 µM | ≥ 20 µM |
| COC(=O)c1ccc(NS(=O)(=O)c2ccc(Sc3ccncc3)c3nonc23)cc1 [compound 256, methyl 4-({[7-(pyridin-4-ylthio)-2,1,3-benzoxadiazol-4-yl]sulfonyl}amino)benzoate] | ≥ 20 µM | ≥ 20 µM | – | – |
| O=S(=O)(c1cccc2nsnc12)N1CCC2(CC1)OCc1ccccc12 [compound 257, 1′-(2,1,3-benzothiadiazol-4-ylsulfonyl)-3H-spiro[2-benzofiiran-1,4′-piperidine]] | ≥ 20 µM | ≥ 20 µM | ≥ 20 µM | ≥ 20 µM |
| O=S(=O)(Nc1ccc(F)c(F)c1)c1ccc(Nc2ccc(F)c(F)c2)c2nonc12 [compound 264, N-(3,4-difluorophenyl)-7-[(3,4-difluorophenyl)amino]-2,1,3-benzoxadiazole-4-sulfonamide] | ≥ 20 µM | ≥ 20 µM | – | – |
| CN1CCN(S(=O)(=O)c2ccc(Sc3ccc(O)cc3)c3nonc23)CC1 [compound 266, 4-({7-[(4-methylpiperazin-1-yl)sulfonyl]-2,1,3-benzoxadiazol-4-yl}thio)phenol] | ≥ 20 µM | ≥ 20 µM | – | – |
| CN1CCN(S(=O)(=O)c2ccc(Sc3cccc4ccccc34)c3nonc23)CC1 [compound 267, 4-[(4-methylpiperazin-1-yl)sulfonyl]-7-(1-naphthylthio)-2,1,3-benzoxadiazole] | ≥ 20 µM | ≥ 20 µM | – | – |
| COc1ccccc1Sc1ccc(S(=O)(=O)N2CCN(C)CC2)c2nonc12 [compound 270, 4-[(2-methoxyphenyl)thio]-7-[(4-methylpiperazin-1-yl)sulfonyl]-2,1,3-benzoxadiazole] | ≥ 20 µM | ≥ 20 µM | – | – |
| O=C(Nc1ccc(N2CCN(c3ncc(C(F)(F)F)cc3Cl)CC2)c2nonc12)c1cccs1 [compound 281, N-(7-{4-[3-chloro-5-(trifluoromethyl)pyridin-2-yl]piperazin-1-yl}-2,1,3-benzoxadiazol-4-yl)thiophene-2-carboxamide] | 1 to 20 µM | 1 to 20 µM | – | – |
| O=[N+]([O-])c1ccc(N2CCC3(CC2)OCc2ccccc23)c2nonc12 [compound 284, 1′-(7-nitro-2,1,3-benzoxadiazol-4-yl)-3H-spiro[2-benzofuran-1,4′-piperidine]] | 1 to 20 µM | ≥ 20 µM | ≥ 20 µM | ≥ 20 µM |
| O=[N+]([O-])c1ccc(N2CCC(Oc3ccccn3)CC2)c2nonc12 [compound 287, 4-nitro-7-[4-(pyridin-2-yloxy)piperidin-1-yl]-2,1,3-benzoxadiazole] | ≥ 20 µM | ≥ 20 µM | – | – |
| O=[N+]([O-])c1ccc(N2CCC(Sc3ccccn3)CC2)c2nonc12 [compound 288, 4-nitro-7-[4-(pyridin-2-ylthio)piperidin-1-yl]-2,1,3-benzoxadiazole] | ≥ 20 µM | ≥ 20 µM | – | – |
| O=S(=O)(c1ccc(Sc2ccc3ccccc3n2)c2nonc12)N1CCC(O)(c2ccc(Cl)cc2)CC1 [compound 485, 4-(4-chlorophenyl)-1-({7-(quinolin-2ylthio)-2,1,3-benzoxadiazol-4-yl}sulfonyl)piperidin-4-ol] | ≥ 20 µM | ≥ 20 µM | – | – |
